Measurements reported in article PMC3216550 (Scientific Reports, 2011).

T1: paAzoR1 (Pseudomonas aeruginosa, UniProt Q9I5F3)
T1 sequence (Q9I5F3 1-212): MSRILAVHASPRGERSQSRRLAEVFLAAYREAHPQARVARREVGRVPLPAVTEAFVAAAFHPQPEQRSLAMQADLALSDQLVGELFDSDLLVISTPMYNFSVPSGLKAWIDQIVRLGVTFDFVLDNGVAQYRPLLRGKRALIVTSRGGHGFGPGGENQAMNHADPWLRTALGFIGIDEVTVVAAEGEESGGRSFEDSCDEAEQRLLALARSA

B1: paAzoR1 (Pseudomonas aeruginosa PAO1) (protein)
chain: T1 sequence (Q9I5F3 1-212)

Experiments:
[1] = molecular target: T1, paAzoR1; assay: X-ray crystal structure, […] Å; assay type: binding; settings: complex with nitrofurazone; FMN in active site
[2] = substrate: NC(=O)N/N=C/c1ccc([N+](=O)[O-])o1; assay: purified protein; settings: 750 μM NADPH, 20 mM Tris-HCl pH 8.0, 100 mM NaCl

Molecule | X-ray crystal structure, 2.08 Å [1] | Km [2]
Cc1cc2nc3c(=O)[nH]c(=O)nc-3n(C[C@H](O)[C@H](O)[C@H](O)COP(=O)(O)O)c2cc1C [FMN] | The FMN is shown with yellow carbon atoms | 
B1 |  | 15.7 ± 1.6 µM
